Literature values as cited in the CATMoS acute toxicity set (Mansouri et al. 2021).
Where “and” joins values, the source holds several entries; their conditions need not be identical. Equal entries are not always repeated.

Assay: rat acute oral toxicity
Conditions: in vivo
For COC(C)N(C)N=O (configuration not stated), the LD50 is given as 240 mg/kg.
In the case of CNC(=O)Oc1ccc(C)c(C)c1, the LD50 is given as 290 mg/kg.
In the case of COCCN(C(=O)CCl)c1c(C)cccc1C, the LD50 is listed as 1600 mg/kg.
For CCCCOCCOC(=O)COc1cc(Cl)c(Cl)cc1Cl, the LD50 is listed as 500 mg/kg.
For CC(=O)N(CC(C)C(=O)O)c1c(I)cc(I)c(N)c1I (configuration not stated), the LD50 is listed as 7100 mg/kg.
In the case of Cn1nc(-c2ccccc2)c2conc2c1=O, the LD50 is given as 1000 mg/kg.
In the case of CC(=O)c1ccccc1[N+](=O)[O-], the LD50 is given as 1600 mg/kg.
For Nc1ccc(N=Nc2ccccc2)cc1, the LD50 is listed as 1250 mg/kg.
In the case of C=C(Cl)CSC(=S)N(CC)CC, the LD50 is given as 850 mg/kg.
In the case of CC=Cc1ccc(OP(=S)(OC)OC)c(OC)c1, the LD50 is given as 250 mg/kg.
For CCC1OCC(=NOC(=O)NC)S1 (configuration not stated), the LD50 is given as 60 mg/kg.
In the case of CCCCC(CC)COC(C[n+]1ccccc1)c1ccc(C2CCCC2)cc1 (configuration not stated), the LD50 is given as 250 mg/kg.
In the case of CNC(=O)c1cnn(C(C)(C)C)c1C#N, the LD50 is listed as 392 mg/kg.
For O=[N+]([O-])c1ccc([C@@H](O)[C@@H]2COC(C(Cl)Cl)=N2)cc1, the LD50 is given as 6000 mg/kg.
For COP(=S)(OC)SCSCC=C(Cl)Cl, the LD50 is given as 85 mg/kg.
In the case of CC(=O)Nc1ccc(C)c(NS(=O)(=O)C(F)(F)F)c1, the LD50 is given as 2580 mg/kg.
In the case of CC(C)c1ccc2c(c1)CC[C@H]1[C@](C)(C(=O)O)CCC[C@]21C, the LD50 is given as 1710 mg/kg.
In the case of N#CC(OC1OC(COC2OC(CO)C(O)C(O)C2O)C(O)C(O)C1O)c1ccccc1 (configuration not stated), the LD50 is given as 517 mg/kg.
In the case of CCCCOC(=O)C(Cl)(Cl)C(Cl)=C(Cl)Cl, the LD50 is listed as 2090 mg/kg.
For CCC(OC(N)=O)c1ccccc1Cl (configuration not stated), the LD50 is given as 710 mg/kg.
In the case of CC(C)(Oc1ccc(Cl)cc1)C(=O)OCc1cccc(CO)n1, the LD50 is listed as 1250 mg/kg.
In the case of COc1c(Cl)cc2[nH]c(C(F)(F)F)nc2c1Cl, the LD50 is listed as 8.03 mg/kg.
For COc1ccccc1OCC(O)CO (configuration not stated), the LD50 is given as 1510 mg/kg.
In the case of C#CCSP(=O)(NC(=O)CC)OC (configuration not stated), the LD50 is listed as 500 mg/kg.
In the case of CNC(=O)N(C)c1nnc(C(F)(F)F)s1, the LD50 is given as 278 mg/kg.
In the case of COP(=S)(Oc1ccc([N+](=O)[O-])cc1)OC(C)C (configuration not stated), the LD50 is listed as 5 mg/kg.
In the case of CCOCCC#N, the LD50 is listed as 3200 mg/kg.
For C[Si](Cl)(Cl)CCCC#N, the LD50 is given as 650 mg/kg.
In the case of O=[N+]([O-])c1cccc2ccccc12, the LD50 is listed as 150 mg/kg.
In the case of FC(F)(F)c1nc2ccc(-c3ccccc3)cc2[nH]1, the LD50 is given as 69 mg/kg.
In the case of C=COCCOCCOC=C, the LD50 is given as 3730 mg/kg.
For CCOP(=O)(OCC)SCSc1cc(Cl)ccc1Cl, the LD50 is given as 38 mg/kg.
In the case of Clc1c(Cl)c(Cl)c2c(c1Cl)Oc1ccccc1O2, the LD50 is given as 0.8 mg/kg.
In the case of Cc1ccc(SN2C(=O)c3ccccc3C2=O)cc1, the LD50 is given as 5060 mg/kg.
For CN(C)CCCN1c2ccccc2C(C)(C)c2ccccc21, the LD50 is listed as 1670 mg/kg and 1850 mg/kg.
For CC1OCC(CN(C)C)O1 (configuration not stated), the LD50 is given as 575 mg/kg.
For CCCCCCCCC(CC=CCl)CCCN (configuration not stated), the LD50 is given as 1320 mg/kg.
For O=C(O)c1cc(N=Nc2ccc(S(=O)(=O)O)cc2)ccc1O, the LD50 is given as 14000 mg/kg.
In the case of CCOP(=S)(OC(C)C)ON1C(=O)c2ccccc2C1=O (configuration not stated), the LD50 is listed as 250 mg/kg.
In the case of C=CS(C)(=O)=O, the LD50 is given as 570 mg/kg.
In the case of NC(=O)OC(CCl)Cc1ccccc1 (configuration not stated), the LD50 is given as 490 mg/kg.
For CCCCCCC(=O)OCCN1CCN(CCCN2c3ccccc3Sc3ccc(C(F)(F)F)cc32)CC1, the LD50 is listed as 230 mg/kg.
For COc1ccc2c(c1)c(CC(=O)Oc1ccc(NC(C)=O)cc1)c(C)n2C(=O)c1ccc(Cl)cc1, the LD50 is listed as 887 mg/kg.
For CCCc1ccc(O)c(OC)c1, the LD50 is given as 2600 mg/kg.
For CC1CN1P(=O)(N1CC1C)N1CC1C (configuration not stated), the LD50 is listed as 136 mg/kg.
In the case of CC(C(=O)OCCN1CCN(CCOC(=O)C(C)c2cccc3ccccc23)CC1)c1cccc2ccccc12 (configuration not stated), the LD50 is given as 5550 mg/kg.
For Fc1c(Cl)c(F)c2nc(C(F)(F)F)[nH]c2c1Cl, the LD50 is given as 1.67 mg/kg.
For Cc1ccc(O)c(-n2nc3ccccc3n2)c1, the LD50 is given as 10000 mg/kg.
For CC(N)=[Se], the LD50 is given as 10 mg/kg.
In the case of CNC(=O)ON=C1CSC(C)CS1 (configuration not stated), the LD50 is listed as 5.1 mg/kg.
In the case of COC(C)CC(=O)O (configuration not stated), the LD50 is listed as 3030 mg/kg.
For CN(C)c1ccc(N=Nc2cccc(C(=O)O)c2)cc1, the LD50 is given as 3760 mg/kg.
For C=CC=NNc1ccccc1, the LD50 is listed as 700 mg/kg.
In the case of CCC(C)c1cc([N+](=O)[O-])cc([N+](=O)[O-])c1OC(=O)SC (configuration not stated), the LD50 is listed as 200 mg/kg.
In the case of COc1cc(S(C)=O)ccc1-c1nc2ncccc2[nH]1 (configuration not stated), the LD50 is given as 315 mg/kg.
For O=C(O)C[C@H](NC(=O)COc1ccc(Cl)cc1Cl)C(=O)O, the LD50 is given as 1000 mg/kg.
For O=C1CC(c2cccc(Br)c2)C(=O)N1 (configuration not stated), the LD50 is given as 1750 mg/kg.
For COc1ccc(-c2cc(N)c3c(c2O)C(=O)c2c(N)ccc(O)c2C3=O)cc1, the LD50 is given as 6380 mg/kg.
In the case of Cl[Si](Cl)(Cl)c1ccccc1, the LD50 is listed as 2390 mg/kg.
In the case of COc1ccc2cc([C@H](C)C(=O)OCCN3CCN(Cc4ccccc4)CC3)ccc2c1, the LD50 is given as 1100 mg/kg.
In the case of C=CCn1ccc(=O)c(O)c1C, the LD50 is given as 800 mg/kg.
For Cc1cccc(/N=N\N(C)C)c1, the LD50 is given as 300 mg/kg.
For CC(C)(N)CCCCCCCCCCOCCO, the LD50 is listed as 1850 mg/kg.
In the case of C=CCC1=C(C)[C@@H](OC(=O)[C@@H]2[C@@H](C=C(C)C)C2(C)C)CC1=O, the LD50 is listed as 430 mg/kg.
For CCSP(SCC)SCC, the LD50 is given as 355 mg/kg.
In the case of CCn1cc(C(O)CN(C)C)c2ccccc21 (configuration not stated), the LD50 is listed as 80 mg/kg.
For CCOC=C(C(=O)OCC)C(=O)OCC, the LD50 is listed as 925 mg/kg.
In the case of COP(=S)(NC(C)C)Oc1ccc(Cl)cc1Cl (configuration not stated), the LD50 is given as 270 mg/kg.
In the case of CC1(CCO)CCOCO1 (configuration not stated), the LD50 is given as 8800 mg/kg.
In the case of Nc1ccc2cc(S(=O)(=O)O)c(/N=N/c3ccc(-c4ccc(/N=N/c5c(S(=O)(=O)O)cc6cc(S(=O)(=O)O)cc(N)c6c5O)cc4)cc3)c(O)c2c1, the LD50 is given as 6450 mg/kg.
For CCC/C=C/C(OCC)OCC, the LD50 is given as 860 mg/kg.
For COc1ccc(O)cc1, the LD50 is given as 1600 mg/kg.
